Measurements: patent publication US4731109A, “Herbicidal 2-haloacetanilides” (Monsanto Company, priority 1982, dated 1988)
Where two headings read alike, the source gives them in different places.

Key:
[1] = tested on: Florida Pusley; assay: Field preemergence activity in peanuts, surface applied; type: in vivo; conditions: for inhibition at 2240 g/ha: 2.24 Kg/Ha; for inhibition at 4480 g/ha: 4.48 Kg/Ha
Source text: (§1) It will be understood by those skilled in the art that not all of the named weeds are selectively controlled in all of the named crops under all conditions of climate, soil, moisture and/or herbicide application modes. Selectivity data for control of the foregoing weeds in the crops soybeans, corn, cotton and peanuts from a plurality of field tests in various locations under various conditions of soil, moisture, etc., is shown collectively in Tables VIII-XI, respectively.
(§2) In Table XI is presented preemergence activity data for the compound of Example 1 against three resistant annual weeds, i.e., Texas panicum, bristly starbur and Florida pusley in peanuts for periods up to 12 WAT. The data in Table XI represent the average of three replicate runs in sandy loam soil having 1.3% organic matter, 79.2% sand and 10% clay; herbicide surface applied.

[2] = tested on: peanuts; assay: as above; type: in vivo; conditions: pre-emergence, read-out: Percent Inhibition; for inhibition at 2240 g/ha: 2.24 Kg/Ha; for inhibition at 3360 g/ha: 3.36 Kg/Ha; for inhibition at 4480 g/ha: 4.48 Kg/Ha
Source text: as §1, §2

[3] = tested on: Texas panicum; assay: as above; type: in vivo; conditions: pre-emergence, read-out: Percent Inhibition; for inhibition at 2240 g/ha: 2.24 Kg/Ha; for inhibition at 3360 g/ha: 3.36 Kg/Ha; for inhibition at 4480 g/ha: 4.48 Kg/Ha
Source text: as §1, §2

[4] = tested on: Bristly Starbur; assay: as above; type: in vivo; conditions: for inhibition at 2240 g/ha / inhibition at 3360 g/ha / inhibition at 4480 g/ha: pre-emergence, read-out: Percent Inhibition; for inhibition at 2240 g/ha: 2.24 Kg/Ha; for inhibition at 3360 g/ha: 3.36 Kg/Ha; for inhibition at 4480 g/ha: 4.48 Kg/Ha
Source text: as §1, §2

[5] = Toxicology studies, skin irritation; conditions: in vivo
Source text: (§3) Toxicology studies on the compound of Example 1 have indicated the compound to be quite safe. […] No special handling procedures beyond normal precautions are deemed necessary.

[6] = tested on: cotton; assay: Field pre-emergence selectivity test; type: in vivo; conditions: Gossypium hirsutum, 1008 h, 6 weeks, read-out: Percent Inhibition; for inhibition at 560 g/ha: 0.56 Kg/Ha; for inhibition at 1120 g/ha: 1.12 Kg/Ha; for inhibition at 2240 g/ha: 2.24 Kg/Ha; for inhibition at 4480 g/ha: 4.48 Kg/Ha
Source text: (§4) The seeds were planted in a fine seedbed of silt loam of intermediate moisture. The seeds were planted at a depth of two inches (5.08 cm). First rainfall (0.2"; 0.51 cm) occurred the day following treatment, the second rain (0.25"; […]) two days after treatment; cumulative rainfall 22 days after treatment was 1.8" (4.57 cm). Observations were made 6 weeks after treatment.

[7] = tested on: peanuts; assay: Field pre-emergence selectivity test; type: in vivo; conditions: 1008 h, 6 weeks, read-out: Percent Inhibition; for inhibition at 560 g/ha: 0.56 Kg/Ha; for inhibition at 1120 g/ha: 1.12 Kg/Ha; for inhibition at 2240 g/ha: 2.24 Kg/Ha; for inhibition at 4480 g/ha: 4.48 Kg/Ha
Source text: as §4

[8] = tested on: Lambsquarters; assay: Field pre-emergence selectivity test; type: in vivo; conditions: Chenopodium album, 1008 h, 6 weeks, read-out: Percent Inhibition; for inhibition at 560 g/ha: 0.56 Kg/Ha; for inhibition at 1120 g/ha: 1.12 Kg/Ha; for inhibition at 2240 g/ha: 2.24 Kg/Ha; for inhibition at 4480 g/ha: 4.48 Kg/Ha
Source text: as §4

[9] = tested on: Sweet Corn; assay: Field pre-emergence selectivity test; type: in vivo; conditions: Zea mays, 1008 h, 6 weeks, read-out: Percent Inhibition; for inhibition at 560 g/ha: 0.56 Kg/Ha; for inhibition at 1120 g/ha: 1.12 Kg/Ha; for inhibition at 2240 g/ha: 2.24 Kg/Ha; for inhibition at 4480 g/ha: 4.48 Kg/Ha
Source text: as §4

[10] = tested on: corn; assay: Field tests, selectivity; type: in vivo
Source text: (§5) In the discussion and tables of data below, reference is made to herbicide application rates symbolized as "GR15 " and "GR85 "; these rates are given in kilograms per hectare (kg/ha) which are convertible into pounds per acre (lbs/A) by dividing the kg/ha rate by 1.12.
(§6) A further guide to the effectiveness of a chemical as a selective herbicide is the "selectivity factor" ("SF") for a herbicide in given crops and weeds. The selectivity factor is a measure of the relative degree of crop safety and weed injury and is expressed in terms of the GR15 /GR85 ratio, i.e., the GR15 rate for the crop divided by the GR85 rate for the weed, both rates in kg/ha (lb/A). In the tables below, selectivity factors are shown in parenthesis following the GR85 rate for each weed; the symbol "NS" indicates "non-selective". Marginal or undetermined selectivity is indicated by a dash (--).
as §1

[11] = tested on: soybeans; assay: Field tests, selectivity; type: in vivo
Source text: as §5, §6, §1

[12] = tested on: Yellow foxtail; assay: Field tests, selectivity; type: in vivo; conditions: in soybeans, 6 WAT
Source text: as §5, §6, §1

[13] = Toxicology studies, LD50; conditions: in vivo
Source text: as §3

[14] = pre-emergence, 4 WAT, read-out: Percent Inhibition
[15] = pre-emergence, 8 WAT, read-out: Percent Inhibition

## CCOCN(C(=O)CCl)c1c(C)cccc1C(F)(F)F [Example 1, N-(ethoxymethyl)-2'-trifluoromethyl-6'-methyl-2-chloroacetanilide]
[1]; 4.48 kg/ha, 12 WAT
  control: 95%
[1]; [14]
  inhibition at 2240 g/ha: 0%
  inhibition at 4480 g/ha: 0%
[1]; [15]
  inhibition at 2240 g/ha: 90%
  inhibition at 4480 g/ha: 95%
[1]; pre-emergence, 3.36 Kg/Ha, 4 WAT, read-out: Percent Inhibition
  inhibition at 3360 g/ha: 0%
[1]; pre-emergence, 12 WAT, read-out: Percent Inhibition
  inhibition at 4480 g/ha: 95%
[2]; 4 WAT
  inhibition at 2240 g/ha: 5%
  inhibition at 3360 g/ha: 10%
  inhibition at 4480 g/ha: 17%
[2]; 8 WAT
  inhibition at 2240 g/ha: 0%
  inhibition at 3360 g/ha: 0%
  inhibition at 4480 g/ha: 7%
[2]; 12 WAT
  inhibition at 2240 g/ha: 0%
  inhibition at 3360 g/ha: 0%
  inhibition at 4480 g/ha: 0%
[3]; 4 WAT
  inhibition at 2240 g/ha: 50%
  inhibition at 3360 g/ha: 68%
  inhibition at 4480 g/ha: 85%
[3]; 8 WAT
  inhibition at 2240 g/ha: 67%
  inhibition at 3360 g/ha: 63%
  inhibition at 4480 g/ha: 88%
[3]; 12 WAT
  inhibition at 2240 g/ha: 40%
  inhibition at 3360 g/ha: 55%
  inhibition at 4480 g/ha: 78%
[4]; 4.48 kg/ha, 12 WAT
  control: complete control
[4]; 8 WAT
  inhibition at 2240 g/ha: 78%
  inhibition at 3360 g/ha: 85%
  inhibition at 4480 g/ha: 95%
[4]; 12 WAT
  inhibition at 2240 g/ha: 40%
  inhibition at 3360 g/ha: 60%
  inhibition at 4480 g/ha: 100%
[5]
  skin irritation: no skin irritation
[6]; P.P.I.
  inhibition at 560 g/ha: 13%
  inhibition at 1120 g/ha: 32%
  inhibition at 2240 g/ha: 37%
  inhibition at 4480 g/ha: 82%
[6]; S.A.
  inhibition at 560 g/ha: 0%
  inhibition at 1120 g/ha: 13%
  inhibition at 2240 g/ha: 20%
  inhibition at 4480 g/ha: 25%
[7]; P.P.I.
  inhibition at 560 g/ha: 17%
  inhibition at 1120 g/ha: 13%
  inhibition at 2240 g/ha: 15%
  inhibition at 4480 g/ha: 28%
[7]; S.A.
  inhibition at 560 g/ha: 0%
  inhibition at 1120 g/ha: 0%
  inhibition at 2240 g/ha: 8%
  inhibition at 4480 g/ha: 22%
[8]; S.A.
  inhibition at 560 g/ha: 0%
  inhibition at 1120 g/ha: 13%
  inhibition at 2240 g/ha: 40%
  inhibition at 4480 g/ha: 67%
[9]; P.P.I.
  inhibition at 560 g/ha: 0%
  inhibition at 1120 g/ha: 3%
  inhibition at 2240 g/ha: 27%
  inhibition at 4480 g/ha: 40%
[9]; S.A.
  inhibition at 560 g/ha: 0%
  inhibition at 1120 g/ha: 0%
  inhibition at 2240 g/ha: 7%
[10]; Corn/Cocklebur, P.P.I., 3 WAT
  GR15: 4.8 kg/ha
[10]; Corn/Cocklebur, P.P.I., 6 WAT
  GR15: 4.8 kg/ha
[10]; Corn/Cocklebur, S.A., 3 WAT
  GR15: > 4.5 kg/ha
[10]; Corn/Cocklebur, S.A., 6 WAT
  GR15: > 4.5 kg/ha
[10]; Corn/Giant foxtail, P.P.I., 6 WAT
  GR15: 4.8 kg/ha
[10]; Corn/Giant foxtail, P.P.I., 6.5 WAT
  GR15: > 6.7 kg/ha
[10]; Corn/Giant foxtail, S.A., 6 WAT
  GR15: 4.5 kg/ha
[10]; Corn/Giant foxtail, S.A., 6.5 WAT
  GR15: > 7.8 kg/ha
[10]; Corn/Morningglory, P.P.I., 3 WAT
  GR15: 4.8 kg/ha
[10]; Corn/Morningglory, P.P.I., 6 WAT
  GR15: 4.8 kg/ha
[10]; Corn/Morningglory, S.A., 3 WAT
  GR15: > 4.5 kg/ha
[10]; Corn/Morningglory, S.A., 6 WAT
  GR15: > 4.5 kg/ha
[11]; Soybeans/Giant foxtail, P.P.I., 3 WAT
  GR15: > 4.5 kg/ha
[11]; Soybeans/Giant foxtail, P.P.I., 5 WAT
  GR15: > 4.5 kg/ha
[11]; Soybeans/Giant foxtail, S.A., 3 WAT
  GR15: > 4.5 kg/ha
[11]; Soybeans/Lambsquarters, P.P.I., 6 WAT
  GR15: 1.4 kg/ha
[11]; Soybeans/Lambsquarters, S.A., 6 WAT
  GR15: 2.5 kg/ha
[11]; Soybeans/Pennsylvania Smartweed, P.P.I., 8 WAT
  GR15: 4.5 kg/ha
[11]; Soybeans/Yellow foxtail, P.P.I., 6 WAT
  GR15: 1.4 kg/ha
[11]; Soybeans/Yellow foxtail, S.A., 6 WAT
  GR15: 2.5 kg/ha
[12]; P.P.I.
  GR85: < 1.12 kg/ha
  S.F. (GR15/GR85): > 1
[12]; S.A.
  GR85: 1.1 kg/ha
  S.F. (GR15/GR85): 2
[13]
  toxicity: slightly toxic
[13]; po, read-out: OLD50
  LD50: 2300 mg/kg
[13]; read-out: MLD50
  LD50: > 5010 mg/kg

## CC(C)OCN(C(=O)CCl)c1ccccc1C(F)(F)F [Example 2, N--(isopropoxymethyl)-2'-trifluoromethyl-2-chloroacetanilide]
[6]; P.P.I.
  inhibition at 560 g/ha: 10%
  inhibition at 1120 g/ha: 23%
  inhibition at 2240 g/ha: 30%
  inhibition at 4480 g/ha: 75%
[6]; S.A.
  inhibition at 560 g/ha: 0%
  inhibition at 1120 g/ha: 8%
  inhibition at 2240 g/ha: 8%
  inhibition at 4480 g/ha: 43%
[7]; P.P.I.
  inhibition at 560 g/ha: 0%
  inhibition at 1120 g/ha: 5%
  inhibition at 2240 g/ha: 17%
  inhibition at 4480 g/ha: 45%
[7]; S.A.
  inhibition at 560 g/ha: 0%
  inhibition at 1120 g/ha: 0%
  inhibition at 2240 g/ha: 5%
  inhibition at 4480 g/ha: 20%
[8]; P.P.I.
  inhibition at 2240 g/ha: 95%
  inhibition at 4480 g/ha: 100%
[8]; S.A.
  inhibition at 560 g/ha: 0%
  inhibition at 1120 g/ha: 7%
  inhibition at 2240 g/ha: 20%
  inhibition at 4480 g/ha: 62%
[9]; P.P.I.
  inhibition at 560 g/ha: 0%
  inhibition at 1120 g/ha: 0%
  inhibition at 2240 g/ha: 13%
  inhibition at 4480 g/ha: 35%
[9]; S.A.
  inhibition at 560 g/ha: 0%
  inhibition at 1120 g/ha: 0%
  inhibition at 2240 g/ha: 0%
  inhibition at 4480 g/ha: 23%
